This note sets out measurements from the NIST ThermoML archive (doi:10.1016/j.fluid.2006.09.014).

Numbers after ± are expanded uncertainties.

Broadly, the mass density is mass per unit of volume.

The conditions of this series: 298.15 K; 101.33 kPa; Liquid.

For the molecule `CC(=O)c1ccccc1` [acetophenone], the mass density came to 1023 ± 0.7 kg/m3.
In the case of `COc1ccccc1` [anisole] it was 989.13 ± 0.21 kg/m3; in that of `Clc1ccccc1` [chlorobenzene], 1100.9 ± 0.5 kg/m3; in that of `Cc1ccccc1` [toluene], 862.27 ± 0.23 kg/m3.
